Results published in ChEMBL document CHEMBL1201862, “PubChem BioAssay data set” (2004).
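These data come from cells grown in 96-well plates and exposed to compound for 48 hours at five concentrations. GI50: concentration for 50% inhibition of growth.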 Active and inactive are the calls of the source. Cut-off read from the data, not from the text of the source: active = GI50 up to about 1.1 µM and inactive = higher.

Assays:
Test in all cases: growth of human tumour cells (NCI), 48 h
786-0 = tested on: 786-0
A498 = tested on: A498
A549 = tested on: A549
ACHN = tested on: ACHN
CAKI-1 = tested on: CAKI-1
CCRF-CEM = tested on: CCRF-CEM
COLO 205 = tested on: COLO 205
DU-145 = tested on: DU-145
EKVX = tested on: EKVX
HCC 2998 = tested on: HCC 2998
HCT-116 = tested on: HCT-116
HCT-15 = tested on: HCT-15
HL-60 = tested on: HL-60
HOP-62 = tested on: HOP-62
HOP-92 = tested on: HOP-92
HT-29 = tested on: HT-29
Hs-578T = tested on: Hs-578T
IGROV-1 = tested on: IGROV-1
K562 = tested on: K562
KM12 = tested on: KM12
LOX IMVI = tested on: LOX IMVI
MCF7 = tested on: MCF7
MDA-MB-231 = tested on: MDA-MB-231
MDA-MB-435 = tested on: MDA-MB-435
MDA-N = tested on: MDA-N
MOLT-4 = tested on: MOLT-4
Malme-3M = tested on: Malme-3M
NCI-H226 = tested on: NCI-H226
NCI-H23 = tested on: NCI-H23
NCI-H460 = tested on: NCI-H460
NCI-H522 = tested on: NCI-H522
NCI/ADR-RES = tested on: NCI/ADR-RES
OVCAR-3 = tested on: OVCAR-3
OVCAR-4 = tested on: OVCAR-4
OVCAR-5 = tested on: OVCAR-5
OVCAR-8 = tested on: OVCAR-8
PC-3 = tested on: PC-3
RPMI-8226 = tested on: RPMI-8226
RXF 393 = tested on: RXF 393
SF-268 = tested on: SF-268
SF-295 = tested on: SF-295
SK-MEL-28 = tested on: SK-MEL-28
SK-MEL-2 = tested on: SK-MEL-2
SK-MEL-5 = tested on: SK-MEL-5
SK-OV-3 = tested on: SK-OV-3
SN12C = tested on: SN12C
SNB-19 = tested on: SNB-19
SNB-75 = tested on: SNB-75
SW-620 = tested on: SW-620
T47D = tested on: T47D
TK-10 = tested on: TK-10
U-251 = tested on: U-251
UACC-257 = tested on: UACC-257
UACC-62 = tested on: UACC-62
UO-31 = tested on: UO-31
M14 = tested on: M14
SF-539 = tested on: SF-539
SR = tested on: SR

For `CN(CCCNCc1ccccn1)Cc1ccccc1O`, the GI50 (786-0) was 52.7 µM (inactive), the GI50 (A498) was > 100 µM (inactive) and the GI50 (A549) was 37.1 µM (inactive). The GI50 (ACHN) was 13.9 µM (inactive), the GI50 (CAKI-1) was 42.8 µM (inactive) and the GI50 (CCRF-CEM) was 50.8 µM (inactive). For the same molecule, the GI50 (COLO 205) was 29 µM (inactive), the GI50 (DU-145) was 40.1 µM (inactive) and the GI50 (EKVX) was 33.4 µM (inactive). The GI50 (HCC 2998) was 25.1 µM (inactive), the GI50 (HCT-116) was 60.4 µM (inactive) and the GI50 (HCT-15) was 6.4 µM. For the same molecule, the GI50 (HL-60) was 2.74 µM (inactive), the GI50 (HOP-62) was 12.4 µM (inactive) and the GI50 (HOP-92) was 42.9 µM (inactive). The GI50 (HT-29) was 22 µM (inactive), the GI50 (Hs-578T) was > 100 µM (inactive) and the GI50 (IGROV-1) was 20.2 µM (inactive). For the same molecule, the GI50 (K562) was 39.8 µM (inactive), the GI50 (KM12) was 28.5 µM (inactive) and the GI50 (LOX IMVI) was 23.1 µM (inactive). For the same molecule, the GI50 (MCF7) was 43 µM (inactive), the GI50 (MDA-MB-231) was > 100 µM (inactive) and the GI50 (MDA-MB-435) was 44.4 µM (inactive). The GI50 (MDA-N) was 58.2 µM (inactive), the GI50 (MOLT-4) was 13.7 µM (inactive) and the GI50 (Malme-3M) was 27.8 µM (inactive). For the same molecule, the GI50 (NCI-H226) was 15.4 µM (inactive), the GI50 (NCI-H23) was 14.4 µM (inactive) and the GI50 (NCI-H460) was 7.19 µM (inactive). The GI50 (NCI-H522) was 56.2 µM (inactive), the GI50 (NCI/ADR-RES) was 16.3 µM (inactive) and the GI50 (OVCAR-3) was 24.9 µM (inactive). For the same molecule, the GI50 (OVCAR-4) was 31.8 µM (inactive), the GI50 (OVCAR-5) was 32 µM (inactive) and the GI50 (OVCAR-8) was 26.8 µM (inactive). For the same molecule, the GI50 (PC-3) was 65.3 µM (inactive), the GI50 (RPMI-8226) was 36.3 µM (inactive) and the GI50 (RXF 393) was 16.7 µM (inactive). The GI50 (SF-268) was 57.9 µM (inactive), the GI50 (SF-295) was 20.4 µM (inactive) and the GI50 (SK-MEL-28) was > 100 µM (inactive). The GI50 (SK-MEL-2) was 35.2 µM (inactive), the GI50 (SK-MEL-5) was 21 µM (inactive) and the GI50 (SK-OV-3) was 45.2 µM (inactive). The GI50 (SN12C) was 71.1 µM (inactive), the GI50 (SNB-19) was 21.6 µM (inactive) and the GI50 (SNB-75) was > 100 µM (inactive). The GI50 (SW-620) was > 100 µM (inactive), the GI50 (T47D) was 34 µM (inactive) and the GI50 (TK-10) was 7.21 µM (inactive). For the same molecule, the GI50 (U-251) was 96.8 µM (inactive), the GI50 (UACC-257) was 24.3 µM (inactive) and the GI50 (UACC-62) was 18.7 µM (inactive). For the same molecule, the GI50 (UO-31) was 3.73 µM (inactive).
For `O=C(/C=C/c1ccc(Cl)cc1)c1cccs1`, the GI50 (786-0) was 15 µM (inactive), the GI50 (A498) was 23.3 µM (inactive) and the GI50 (A549) was 29.1 µM (inactive). The GI50 (ACHN) was 20 µM (inactive), the GI50 (CAKI-1) was 24 µM (inactive) and the GI50 (CCRF-CEM) was 6.61 µM (inactive). The GI50 (COLO 205) was 19.3 µM (inactive), the GI50 (DU-145) was 40.6 µM (inactive) and the GI50 (EKVX) was 26.6 µM (inactive). The GI50 (HCC 2998) was 18.6 µM (inactive), the GI50 (HCT-116) was 14.8 µM (inactive) and the GI50 (HCT-15) was 17.5 µM. The GI50 (HL-60) was 7.19 µM (inactive), the GI50 (HOP-62) was 26.5 µM (inactive) and the GI50 (HT-29) was 16.5 µM (inactive). The GI50 (Hs-578T) was 36 µM (inactive), the GI50 (IGROV-1) was 29.9 µM (inactive) and the GI50 (K562) was 4.03 µM (inactive). The GI50 (KM12) was 13.9 µM (inactive), the GI50 (LOX IMVI) was 11.4 µM (inactive) and the GI50 (M14) was 20.9 µM (inactive). The GI50 (MCF7) was 3.62 µM (inactive), the GI50 (MDA-MB-231) was 20 µM (inactive) and the GI50 (MDA-MB-435) was 13 µM (inactive). For the same molecule, the GI50 (MDA-N) was 16.3 µM (inactive), the GI50 (MOLT-4) was 15.7 µM (inactive) and the GI50 (Malme-3M) was 16.6 µM (inactive). For the same molecule, the GI50 (NCI-H226) was 22.4 µM (inactive), the GI50 (NCI-H23) was > 10 µM (inactive) and the GI50 (NCI-H460) was 18.4 µM (inactive). The GI50 (NCI/ADR-RES) was 24.3 µM (inactive), the GI50 (OVCAR-4) was > 10 µM (inactive) and the GI50 (OVCAR-8) was 21.7 µM (inactive). For the same molecule, the GI50 (PC-3) was 18.2 µM (inactive), the GI50 (RPMI-8226) was 3.1 µM (inactive) and the GI50 (SF-268) was 29.7 µM (inactive). For the same molecule, the GI50 (SF-295) was 20 µM (inactive), the GI50 (SF-539) was 34.3 µM (inactive) and the GI50 (SK-MEL-28) was 26.2 µM (inactive). The GI50 (SK-MEL-2) was 24.5 µM (inactive), the GI50 (SK-MEL-5) was 18.2 µM (inactive) and the GI50 (SK-OV-3) was 26.4 µM (inactive). The GI50 (SN12C) was 16.5 µM (inactive), the GI50 (SNB-19) was 18.2 µM (inactive) and the GI50 (SNB-75) was 22.5 µM (inactive). The GI50 (SR) was 6.24 µM (inactive), the GI50 (SW-620) was 12.9 µM (inactive) and the GI50 (T47D) was 21 µM (inactive). The GI50 (TK-10) was 20.8 µM (inactive), the GI50 (U-251) was 16 µM (inactive) and the GI50 (UACC-257) was 19.6 µM (inactive). The GI50 (UACC-62) was 21 µM (inactive) and the GI50 (UO-31) was 18 µM (inactive).
In the case of `Cc1ccc(S(=O)(=O)n2cc(-c3cc(C(F)(F)F)ccn3)c3cc(Br)ccc32)cc1`, the GI50 (786-0) is reported as 13.9 µM (inactive), the GI50 (A498) is reported as 18.2 µM (inactive) and the GI50 (A549) is reported as 21.1 µM (inactive). The GI50 (ACHN) was 11.4 µM (inactive), the GI50 (CAKI-1) was 16.3 µM (inactive) and the GI50 (CCRF-CEM) was > 100 µM (inactive). The GI50 (COLO 205) was 59.2 µM (inactive), the GI50 (DU-145) was 17.9 µM (inactive) and the GI50 (EKVX) was 29.6 µM (inactive). The GI50 (HCC 2998) was 16.4 µM (inactive), the GI50 (HCT-116) was 14.5 µM (inactive) and the GI50 (HCT-15) was 21.9 µM. The GI50 (HL-60) was > 100 µM (inactive), the GI50 (HOP-62) was 11.8 µM (inactive) and the GI50 (HOP-92) was 13.7 µM (inactive). The GI50 (HT-29) was 49.1 µM (inactive), the GI50 (Hs-578T) was 15 µM (inactive) and the GI50 (K562) was > 100 µM (inactive). For the same molecule, the GI50 (KM12) was 38.9 µM (inactive), the GI50 (LOX IMVI) was 28.1 µM (inactive) and the GI50 (M14) was 27.7 µM (inactive). For the same molecule, the GI50 (MCF7) was 5.26 µM (inactive), the GI50 (MDA-MB-231) was 17.3 µM (inactive) and the GI50 (MDA-MB-435) was 46.2 µM (inactive). The GI50 (MDA-N) was 45.2 µM (inactive), the GI50 (MOLT-4) was > 100 µM (inactive) and the GI50 (Malme-3M) was 20.7 µM (inactive). For the same molecule, the GI50 (NCI-H226) was 19 µM (inactive), the GI50 (NCI-H23) was 14.5 µM (inactive) and the GI50 (NCI-H460) was 36.5 µM (inactive). For the same molecule, the GI50 (NCI/ADR-RES) was 34.2 µM (inactive), the GI50 (OVCAR-3) was 12.2 µM (inactive) and the GI50 (OVCAR-4) was 12.3 µM (inactive). The GI50 (OVCAR-5) was 50 µM (inactive), the GI50 (PC-3) was 18.2 µM (inactive) and the GI50 (RPMI-8226) was 69.2 µM (inactive). The GI50 (RXF 393) was 17.8 µM (inactive), the GI50 (SF-268) was 27.4 µM (inactive) and the GI50 (SF-295) was 17.9 µM (inactive). The GI50 (SF-539) was 17.1 µM (inactive), the GI50 (SK-MEL-28) was 20.7 µM (inactive) and the GI50 (SK-MEL-2) was 3.07 µM (inactive). For the same molecule, the GI50 (SK-MEL-5) was 24.3 µM (inactive), the GI50 (SK-OV-3) was 15.5 µM (inactive) and the GI50 (SN12C) was 28.3 µM (inactive). The GI50 (SNB-19) was 16 µM (inactive), the GI50 (SR) was 54.6 µM (inactive) and the GI50 (SW-620) was 74.6 µM (inactive). For the same molecule, the GI50 (T47D) was 1.55 µM (inactive), the GI50 (TK-10) was 18.7 µM (inactive) and the GI50 (U-251) was 15.5 µM (inactive). The GI50 (UACC-257) was 27 µM (inactive), the GI50 (UACC-62) was 16.1 µM (inactive) and the GI50 (UO-31) was 11.2 µM (inactive).
